pIC50: −log10 of the molar value.
Columns and labels:
MAO-B = target: T1, MAO-B (Rattus norvegicus, UniProt P19643); test: Monoamine oxidase-B (MAO-B) inhibition assay; type: biochemical; conditions: for pIC50: Table II; for Ratio A/B: ratio of MAO-A IC50 to MAO-B IC50
T1 construct: Both Forms of Monoamine Oxidase in the Rat Brain; from tissue
T1 sequence (P19643 1-520): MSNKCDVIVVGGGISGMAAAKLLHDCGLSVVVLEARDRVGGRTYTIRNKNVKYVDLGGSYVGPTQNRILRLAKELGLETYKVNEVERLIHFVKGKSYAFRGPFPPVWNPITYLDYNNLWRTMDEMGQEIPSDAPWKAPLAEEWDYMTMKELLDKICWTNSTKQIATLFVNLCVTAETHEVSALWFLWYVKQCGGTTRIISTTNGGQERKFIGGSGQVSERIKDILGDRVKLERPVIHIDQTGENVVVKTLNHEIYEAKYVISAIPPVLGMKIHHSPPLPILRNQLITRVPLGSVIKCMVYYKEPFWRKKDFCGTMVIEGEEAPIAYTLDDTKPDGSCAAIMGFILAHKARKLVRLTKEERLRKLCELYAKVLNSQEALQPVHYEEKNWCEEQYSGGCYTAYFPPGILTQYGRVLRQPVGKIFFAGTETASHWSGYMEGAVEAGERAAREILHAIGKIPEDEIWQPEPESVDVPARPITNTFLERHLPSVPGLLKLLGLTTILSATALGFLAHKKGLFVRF

MAO-A = target: T2, MAO-A (Rattus norvegicus, UniProt P21396); test: Monoamine oxidase-A (MAO-A) inhibition assay; type: biochemical; conditions: Table II
T2 construct: Both Forms of Monoamine Oxidase in the Rat Brain; from tissue
T2 sequence (P21396 1-526): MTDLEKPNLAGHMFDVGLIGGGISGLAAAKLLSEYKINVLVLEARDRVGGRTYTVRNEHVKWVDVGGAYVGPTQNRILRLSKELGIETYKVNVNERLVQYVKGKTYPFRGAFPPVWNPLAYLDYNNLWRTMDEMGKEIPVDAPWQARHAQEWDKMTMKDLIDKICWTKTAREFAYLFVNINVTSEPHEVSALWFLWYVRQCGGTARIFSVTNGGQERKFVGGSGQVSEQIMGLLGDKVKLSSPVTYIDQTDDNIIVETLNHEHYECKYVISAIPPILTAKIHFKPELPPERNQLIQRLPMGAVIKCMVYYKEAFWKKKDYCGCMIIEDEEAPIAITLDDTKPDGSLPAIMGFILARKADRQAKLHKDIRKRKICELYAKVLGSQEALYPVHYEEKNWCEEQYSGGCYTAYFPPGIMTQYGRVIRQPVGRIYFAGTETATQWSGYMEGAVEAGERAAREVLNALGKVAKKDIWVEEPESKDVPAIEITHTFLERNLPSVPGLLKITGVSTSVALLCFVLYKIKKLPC

AMPT test (ED50) = type: in vivo; conditions: Table II; method not described

Structure (SMILES)	pIC50 (MAO-B)	Ratio A/B (MAO-B)	pIC50 (MAO-A)	ED50 (AMPT test (ED50)) [mg/kg]
O=C1NC(=O)C(=Cc2cccc(OCc3ccccc3)c2)S1 [Example 1, 5-[3-(Phenylmethoxy)phenylmethyl-ene]-2,4-thiazolidinedione]	4.00	1	4.00	–
N#CCCCN1C(=O)SC(=Cc2cccc(OCc3ccccc3)c2)C1=O [Example 2, 2,4-Dioxo-5-[3-(phenylmethoxy)-phenylmethylene]-4-thiazolidinebutanenitrile]	7.00	> 50000	< 2.30	–
O=C1NC(=O)C(=Cc2ccc(OCCc3ccccc3)cc2)S1 [Example 4, 5-[4-(2-Phenylethoxy)phenylmethylene]-2,4-thiazolidinedione]	7.00	> 300	4.52	–
N#CCN1C(=O)SC(=Cc2ccc(OCCc3ccccc3)cc2)C1=O [Example 5, 2,4-Dioxo-5-[4-(2-phenylethoxy)phenylmethylene]-3-thiazolidineacetonitrile]	5.70	15	4.52	–
CCCCCCOc1ccc(CC2SC(=O)NC2=O)cc1 (stereo not shown) [Example 6, 5-[(4-Hexyloxyphenyl)methyl]-2,4-thiazolidinedione]	7.00	100	5.00	6.71
O=C1NC(=O)C(=Cc2ccc(OCc3cccc(Cl)c3)cc2)S1 [Example 8, 5-{4-[(3-Chlorophenyl)methoxy]phenylmethylene}-2,4-thiazolidinedione]	4.52	> 3	< 4.00	–

Continued by rising pIC50 (MAO-B), values first:

pIC50 (MAO-B)	Ratio A/B (MAO-B)	pIC50 (MAO-A)	Structure (SMILES)	ED50 (AMPT test (ED50)) [mg/kg]
4.00	< 1	4.52	N#CCCCN1C(=O)SC(=Cc2ccc(OCc3cccc(Cl)c3)cc2)C1=O [Example 9]	–
6.15	> 1428	< 3.00	N#CCCCCN1C(=O)SC(=Cc2cccc(OCc3ccccc3)c2)C1=O [Example 3]	–
7.00	300	4.52	O=C1NC(=O)C(Cc2ccc(OCC34CC5CC(CC(C5)C3)C4)cc2)S1 (stereo not shown) [Example 7, 5-[4-(3-Adamantylmethoxy)phenylmethyl]-2,4-thiazolidinedione]	–
